From US4642347A, “3(2-quinolinylalkoxy)phenols” (American Home Products Corporation, priority 1985, dated 1987) come the findings set out here.

One may read the % Inhibition as the share of the control response that was lost under treatment.

Assay [1] concerns 5-HETE synthesis by rat glycogen-elicited polymorphonuclear leukocytes (5-lipoxygenase). The experiment in a line: Inhibition of 5-HETE synthesis by rat glycogen-elicited polymorphonuclear leukocytes (A23187, [14C] arachidonic acid). The assay is classed as cell-based, rat (Wistar). Particulars: for IC50: Leukocyte, rat peritoneal PMN, 5-HETE synthesis, read-out: 50% Inhibitory Concentration (IC50), 5-HETE. The protocol: This is especially true with respect to 5,12-diHETE, which is also denoted as LTB4 [see Ford-Hitchinson, J. Roy. Soc. Med., 74, 831 (1981)]. The assay of this Example measures the ability of the compounds of the invention to inhibit the synthesis of 5-HETE and LTB4 by rat glycogen-elicited polymorphonuclear leukocytes.
(§1) The assay is carried out as follows:
(§2) Peritoneal PMN are obtained from female Wistar rats (150-250 g) that received an i.p. injection of 6% glycogen (10 ml). After 24 hours, rats are killed by CO2 asphyxiation and peritoneal cells are harvested by peritoneal lavage using Ca^++ and Mg^++ free Hanks' balanced salt solution (HBSS). The peritoneal exudate is centrifuged at 400 g for 10 minutes. After centrifugation, the lavaged fluid is removed and the cell pellet is resuspended in HBSS containing Ca^++ and Mg^++ and 10 mM L-cysteine at a concentration of 2×10^7 cells/ml. To 1 ml portions of cell suspension, test drugs or vehicle are added and incubated at 37° C. for 10 minutes. Following this preincubation, the calcium ionophore (10 μM), A23187, is added together with 0.5 μCi [^14 C] arachidonic acid and further incubated for 10 minutes. The reaction is stopped by the addition of ice cold water (3 ml) and acidifying to pH 3.5. Lipoxygenase products are then extracted twice into diethyl ether. The pooled ether extracts are evaporated to dryness under nitrogen and the residue is redissolved in a small volume of methanol and spotted on aluminum backed pre-coated thin layer chromatographic plates. The samples are then co-chromatographed with authentic reference 5-HETE in the solvent system--hexane:ether:acetic acid (50:50:3). After chromatography, the areas associated with 5-HETE standard are identified by autoradiography, cut out and quantitated by liquid scintillation.
Results are expressed as % inhibition of [^14 C]5-HETE synthesis. [formula]

The test system of assay [2] is TxB2 synthesis (cyclooxygenase). The experiment in a line: Inhibition of synthesis of TxB2 by rat polymorphonuclear leukocytes. Type of assay: cell-based, rat (Wistar). To be noted: for IC50: Leukocyte, rat PMN, TxB2, read-out: % Inhibitory Concentration (IC50), Inhibition of Synthesis of TxB2. The protocol:
as §2
(§3) The procedure of Example 2 is also employed for the determination of the ability of the compounds of the invention to inhibit the synthesis of the arachidonic acid cyclooxygenase oxidation products TxB2 and PGE2.
In this assay, the procedure of Example 2 is carried out as described. […] After chromatography, the areas associated with TxB2 and PGE2 standards are identified by autoradiography, cut out and quantitated by liquid scintillation techniques.
(§4) The results are calculated as in Example 2 and presented below.

For assay [3], the system named is PGE2 synthesis (cyclooxygenase). The experiment in a line: Inhibition of synthesis of PGE2 by rat polymorphonuclear leukocytes. The assay is classed as cell-based, rat (Wistar). Particulars: for IC50: Leukocyte, PGE2, read-out: 50% Inhibitory Concentration (IC50), Inhibition of Synthesis of PGE2; for IC50 / influence on the synthesis of PGE2 (in words): rat PMN; for cyclooxygenase inhibitory activity (in words): conclusion from TxB2 and PGE2 results. The protocol:
as §2, §3
In this assay, the procedure of Example 2 is carried out as described. However, in order to determine cyclooxygenase activity, the samples are cochromatographed with authentic reference TxB2 and PGE2 in the solvent system ethyl acetate:formic acid (80:1) and the upper phase of ethyl acetate:isoctane:acetic acid:water (110:50:20:100). After chromatography, the areas associated with TxB2 and PGE2 standards are identified by autoradiography, cut out and quantitated by liquid scintillation techniques.
as §4

The subject of assay [4] is leukotrienes C4 and/or D4 induced bronchospasm. The experiment in a line: In vivo inhibition of bronchospasm induced in guinea pigs by exogenously administered leukotrienes C4 and/or D4. Details: species or system guinea pig (Hartley). Particulars: for % Maximal Bronchoconstriction / % Inhibition: 10 minutes before induction of bronchospasm; for % Inhibition: compared to its control (*P < 0.05; ***P < 0.001); for leukotriene antagonism (in words): summary of guinea pig results.

Assay [5] deals with ovalbumin-induced bronchoconstriction. The experiment in a line: In vivo inhibition of ovalbumin-induced (anaphylactic) bronchoconstriction by endogenous mediators in sensitized guinea pigs. More on the design: species or system guinea pig (Hartley). To be noted: 50 mg/kg intraduodenally, 10 minutes before i.v. ovalbumin challenge; for % Inhibition: compared to its control (*P < 0.05; ***P < 0.005). Here is the method:
The assay of this Example measures the in vivo ability of the compounds of the invention to inhibit the bronchospasm induced in guinea pigs by endogenous mediators of the bronchoconstriction.
as §1
Male Hartley strain guinea pigs weighing 250-350 g are sensitized to chicken ovalbumin (OA) (10 mg i.p.) on days 1 and 3 and used starting on day 26. The animals are anesthetized with pentobarbital sodium (50 mg/kg, i.p.), bilateral vagotomy is performed, and the jugular vein is cannulated for injection of drugs and the carotid artery for monitoring blood pressure. The trachea is cannulated for artificial ventilation by miniature Starling pump and for indirect measurement of respiratory volume changes as described, infra. Succinylcholine (2 mg/kg, i.v.) is administered to arrest spontaneous respiration. A cyclooxygenase inhibitor, indomethacin (10 mg/kg in tris buffer, i.v. at 9 min.) is administered to shunt arachidonic metabolism to lipoxygenase pathways. One minute later, chlorpheniramine (1.0 mg/kg in saline, i.v.) is given to attenuate the histaminic component of anaphylactic bronchoconstriction. Test drugs (dissolved in propylene glycol, polyethylene glycol or saline) are administered either intraduodenally or by aerosol at 2 or 10 minutes before antigen challenge. Anaphylactic bronchoconstriction is induced by administration by breaths of aerosolized OA (1%) or by intravenous administration of 0.1-0.3 mg/kg OA in saline. Control animals receive solvent (2 ml/kg i.d. or appropriate aerosol) in place of drug.
Respiratory volume changes are determined by a calibrated piston whose travel is recorded, via a linear transducer, on a Beckman Dynograph recorder. Maximal bronchoconstrictor volume is determined by clamping off the trachea at the end of the experiment. Overflow volumes at minutes 1, 3 and 5 are obtained from the recorded charts.
Area under the volume overflow curve (AUC) is estimated, using the overflow values at 1, 3 and 5 minutes, and expressed as a percentage of the maximal overflow AUC (equation 1): [formula] Drug effects are reported as percent inhibition of % max AUC values obtained from appropriate control animals (equation 2): [formula] Students t-test for unpaired data is used to determine statistical significance.

Entries after “also recorded” stand apart in the source; their conditions may differ. Some results are limits rather than exact numbers.

Consider `Oc1ccccc1OCc1ccc2ccccc2n1` [2-(2-quinolinylmethoxy)phenol, reference compound], for which the IC50 in assay [1] came to 53 µM. The IC50 in assay [2] is 6.82 µM. Moreover, in assay [2] (as potent as the compound of Example 1), the “potency in inhibiting TxB2 synthesis relative to the compound of Example 1” value was “twice as potent”. Further, in assay [3], the IC50 came out at 5.82 µM, the “cyclooxygenase inhibitory activity (in words)” value is on record as “potent activity as a cyclooxygenase inhibitor” and the “influence on the synthesis of PGE2 (in words)” value is listed as “quite significantly active”. Moreover, in assay [4] (50 mg/kg intraduodenally), the “% Maximal Bronchoconstriction” value is reported as 43 ± 6% and the “% Inhibition” value turned out to be 28%. Besides, the “leukotriene antagonism (in words)” value in assay [4] was “ability to block leukotriene responses”. In assay [5], the “% Maximal Bronchoconstriction” value is 31 ± 6% and the “% Inhibition” value was determined as 47%.
On to `Oc1cccc(OCc2ccc3ccccc3n2)c1` [Example 1, 3-(2-Quinolinylmethoxyl)phenol], for which, in assay [1], the IC50 stood at 6.07 µM. For the same compound, the “5-lipoxygenase inhibition (in words)” value in assay [1] (conclusion from Example 2) is reported as “very potent 5-lipoxygenase inhibitor; also recorded: significant 5-lipoxygenase inhibition; also recorded: strong inhibitor of 5-lipoxygenase”. For the same compound, the “potency in inhibiting the synthesis of 5-HETE relative to the prior art compound” value in assay [1] (rat peritoneal neutrophils, more potent than the prior art compound) is “approximately an order of magnitude more potent”. The IC50 in assay [2] was 14.6 µM. Besides, in assay [3], the IC50 was over 100 µM, the “cyclooxygenase inhibitory activity (in words)” value is “little or no significant cyclooxygenase inhibitory activity” and the “influence on the synthesis of PGE2 (in words)” value is “failure”. For the same compound, in assay [4] (50 mg/kg intraduodenally), the “% Maximal Bronchoconstriction” value is 10 ± 1% and the “% Inhibition” value came out at 82%. Besides, the “leukotriene antagonism (in words)” value in assay [4] is given as “potent leukotriene antagonist”. The “potency as inhibitor of LTD4-induced bronchoconstriction relative to the prior art compound” value in assay [4] (times more potent than the prior art compound, 50 mg/kg intraduodenally) is “approximately three”. For the same compound, in assay [5], the “% Maximal Bronchoconstriction” value stood at 21 ± 8% and the “% Inhibition” value is listed as 53%.
